The values that follow come from patent publication US20230167497A1, “METHODS OF IDENTIFYING MODULATORS OF THE IL-17 PATHWAY” (Janssen Pharmaceutica NV, priority 2020, published 2023).

The subject of data set [1] is rhIL-17A stimulated G-CSF production in normal human keratinocytes (NHK). The data set is described as follows: NHK G-CSF assay with rhIL-17A stimulation. The class given is cell-based. As to conditions: for inhibition of IL-17 stimulated G-CSF production: concentrations tested, FIGS. 2A and 2C; for dose dependent G-CSF levels: various doses, FIG. 3.
For data set [2], the system named is Th17 conditioned media stimulated G-CSF production in normal human keratinocytes (NHK). Put plainly: NHK G-CSF assay with Th17 conditioned media stimulation. It counts as cell-based. As to conditions: for inhibition of G-CSF production: NHK, Th17 conditioned media, FIG. 4A; for IC50: Th17 conditioned media stimulated NHK (footnote 15). How it is done: In order to test potential modulators of the IL-17 pathway, normal human keratinocytes (NHK) were incubated with either recombinant IL-17A or Th17 conditioned media and potential inhibitor compounds, and then levels of granulocyte colony-stimulating factor (G-CSF) in the cell supernatant were measured as described in detail below.
Peripheral blood mononuclear cells (PBMCs) were isolated from human whole blood using Ficoll-Paque density gradient centrifugation (Ficoll-Paque, GE, 17-1440-03) using SepMate tubes (StemCell technologies, 85450). […] CD4+ T cells were isolated through manual magnetic labeling and cell separation (LS column, Miltenyi Biotec, 130-042-401) following vendor protocol (Miltenyi Biotec, 130 533). CD4+ T cells were seeded on 24-well plates at 2×10^6 cells/mL in 500 μL of RPMI Media (RPMI 1640, Hyclone, SH30096.01) supplemented with 10% FBS, penicillin-streptomycin (Sigma, P0781-100 ml), L-glutamine (Sigma, G7513-100ML), and 2-Mercaptoethanol (Gibco, 21985-023). Th17 polarization media was prepared in RPMI media and 250 μL was added to each well at a final concentration of: anti-CD3/anti-CD28 beads, prepared using T cell activation/expansion kit (Miltenyi Biotec, 130-091-441), at 2× cell number per well, anti-human interleukin-4 (IL-4) [10 ug/mL], anti-human interferon gamma (IFNγ) [10 ug/mL] antibodies (ThermoFisher, 16-7048-85, 16-7318-85), human IL-2 [60 U/mL] (Pepro Tech, 200-02), human IL-1β [10 ng/mL], human IL-23 [10 ng/mL], human IL-6 [50 ng/mL], and human TGFβ [12 ng/mL] (R&D Systems, 201-LB-010, 1290-IL-010, 206-IL-010, 240-B-010). […] The level of human IL-17A in Th17 conditioned media was determined using DuoSet ELISA kits following the vendor protocol (R&D Systems, DY317-05, DY5194-05, DY1335B-05). Human IL-17A was detected in Th17 conditioned media, while unstimulated, undifferentiated CD4+ T cells had no detectable level of IL-17A in the supernatant (FIG. 1). […]
After overnight culture, cell supernatant was carefully collected for G-CSF detection, and cells were further analyzed for viability or gene expression
G-CSF levels were measured using the Human G-CSF Homogeneous Time Resolved Fluorescence (HTRF) Assay kit (Cisbio, Cat. No. 63ADK055PEB1; Codolet, France) according to the manufacturer's protocol. G-CSF is detected in a sandwich assay format using different specific antibodies, one labeled with Eu3+-Cryptate (donor) and the second with d2 (acceptor). When the dyes are in close proximity, the excitation of the donor with a light source (laser or flash lamp) triggers a Fluorescence Resonance Energy Transfer (FRET) towards the acceptor, which in turn fluoresces at a specific wavelength (665 nm). […]

The subject of data set [3] is Th17 conditioned media stimulated gene panel in NHKs. The data set is described as follows: QuantiGene Plex gene panel expression, NHK stimulated with Th17 conditioned media. The class given is cell-based, human. As to conditions: FIG. 6. The protocol: Peripheral blood mononuclear cells (PBMCs) were isolated from human whole blood using Ficoll-Paque density gradient centrifugation (Ficoll-Paque, GE, 17-1440-03) using SepMate tubes (StemCell technologies, 85450). […] CD4+ T cells were isolated through manual magnetic labeling and cell separation (LS column, Miltenyi Biotec, 130-042-401) following vendor protocol (Miltenyi Biotec, 130 533). CD4+ T cells were seeded on 24-well plates at 2×10^6 cells/mL in 500 μL of RPMI Media (RPMI 1640, Hyclone, SH30096.01) supplemented with 10% FBS, penicillin-streptomycin (Sigma, P0781-100 ml), L-glutamine (Sigma, G7513-100ML), and 2-Mercaptoethanol (Gibco, 21985-023). […] The level of human IL-17A in Th17 conditioned media was determined using DuoSet ELISA kits following the vendor protocol (R&D Systems, DY317-05, DY5194-05, DY1335B-05). Human IL-17A was detected in Th17 conditioned media, while unstimulated, undifferentiated CD4+ T cells had no detectable level of IL-17A in the supernatant (FIG. 1).
A panel of IL-17A-stimulated genes was identified, initially through microarray experiments and later confirmed by RT-PCR, to assess modulators of the IL-17 pathway as shown in Table 2. Expression levels of the genes in the panel were measured using QuantiGene® Plex Gene Expression assay in human keratinocytes treated with human recombinant IL-17A and compounds as described in Example 1. […]

In data set [4] the test system is IL-17A-stimulated gene panel in NHKs. Put plainly: QuantiGene Plex gene panel expression, NHK stimulated with recombinant IL-17A. It counts as cell-based, human. As to conditions: NHKs stimulated with recombinant IL-17A, FIGS. 5A and 5B. How it is done:
A panel of IL-17A-stimulated genes was identified, initially through microarray experiments and later confirmed by RT-PCR, to assess modulators of the IL-17 pathway as shown in Table 2. Expression levels of the genes in the panel were measured using QuantiGene® Plex Gene Expression assay in human keratinocytes treated with human recombinant IL-17A and compounds as described in Example 1.
After the 24 hour incubation with IL-17A with and without compounds, 50 μl Lysis buffer (QuantiGene, ThermoFisher) was added to each well containing 100 μl cells. The plate was covered and incubated for 30 minutes in a VorTemp set at 50-55° C., 170 rpm to lyse the cells. The plate was then kept frozen at −80° C. On the day of QuantiGene experiments, samples and reagents were prepared and assay was conducted according the manufacturer's protocol (QuantiGene, ThermoFisher). At the final step, the sample plate was read on a Luminex MagPix® instrument (Luminex; Austin, Tex.) for fluorescent intensity signals.
The raw expression value of a given gene (g) in a sample (S) was quantified as the median of raw fluorescent intensity of the corresponding probe. Normalization factor of each sample S was determined by the raw expression of four housekeeping genes, ACTB, GAPDH, HPRT1, and PPIB, as the ratio of the geometric mean (geomean) of the four housekeeping genes in sample S vs. the geomean of the four housekeeping genes among all samples. The normalized expression value of each gene in sample S was further quantified as the raw expression value divided by the normalization factor in sample S.
Changes in expression of gene g in keratinocytes in response to IL-17A stimulation was calculated as the ratio of the geomean of its normalized expression values in IL-17A stimulated samples vs. that in unstimulated samples. For each gene g, the relative expression value in sample S (Rel_Exp_S) was further determined by its normalized expression in sample S (Norm_Exp_S) and the geomeans of its normalized expression in IL-17A stimulated samples (GM_Norm_Exp_Stim) and unstimulated samples (GMNorm_Exp_UnStim), using formula as: Rel_Exp_S=(Norm_Exp_S−GM_Norm_Exp_UnStim)/(GM_Norm_Exp_Stim−GM_Norm_Exp_UnStim).

The test system of data set [5] is TNFa secretion by LPS stimulated hPBMCs. As to conditions: Wadsworth et al. 1999, read-out: IC50 (Literature), inhibition of TNFa secretion; cited from earlier work.
In data set [6] the test system is IL-β secretion by LPS stimulated hPBMCs. As to conditions: Wadsworth et al. 1999, read-out: IC50 (Literature), inhibition of IL-β secretion; cited from earlier work.
The subject of data set [7] is normal human keratinocytes (NHK). Put plainly: CellTiter-Glo Luminescent Cell Viability Assay of NHK cells. The class given is cell-based. As to conditions: FIG. 2B. The protocol: To test whether treatment with IL-17 or compounds affected cell viability, cells were tested with CellTiter-Glo® Luminescent Cell Viability Assay (Promega; Madison, Wis.) according to manufacturer's protocol.
The substrate vial and the buffer solution were equilibrated at room temperature before reconstitution. The lyophilized substrate solution was reconstituted by adding the appropriate volume of buffer to the substrate vial. After brief mixing, equal volumes of the reconstituted reagent were added to the volume of media in each well of the plate containing cells. The plate was shaken briefly to mix and incubated at room temperature for 10 minutes then luminescent signal was read using an Envision plate reader.
Percent cell viability was calculated as:
% viability=((Sample RLU/No stimulation Avg,RLU)*100).
On the technique in general: ATP-based viability assays read luminescence as a measure of living cells.

[8] abbreviates: Homo sapiens, Keratinocyte, rhIL-17A stimulated NHK assay (footnote 14), 5 ng/ml rhIL-17A.
The mark [9] stands for this setting: rhIL-17A stimulated NHK assay (footnote 14), 5 ng/ml rhIL-17A.

Take `O=C(CCC(F)(F)F)N[C@@H](c1ccn2cc([C@@H](NC(=O)c3conc3CCC(F)(F)F)C3CCC(F)(F)CC3)nc2n1)C1CC1` [IL-17Ai-5]: the IC50 (usually the point on the concentration scale where inhibition reaches its midpoint) in data set [1] (setting [8]) was determined as 86.2 nM.

`Cc1nonc1C(=O)N[C@H](c1cn2ncc([C@H](NC(=O)CCC(F)(F)F)C3CC3)cc2n1)C1CCC(F)(F)CC1` (stereo in doubt) [IL-17Ai-3] yielded an IC50 in data set [1] (setting [8]) of 72.8 nM.

On to Brodalumab, for which, in data set [2], the “inhibition of G-CSF production” value is given as “inhibited G-CSF production”. The IC50 in data set [2] was determined as 0.082 nM; in data set [1] (setting [9]), 0.07 nM. Also, the “expression of the gene panel” value in data set [3] and in data set [4] was “inhibited expression of the gene panel in a dose-dependent manner” in each case. Also, the “inhibition of IL-17 stimulated G-CSF production” value in data set [1] (NHK, rhIL-17A) is listed as “inhibited G-CSF production at all concentrations tested”.

Turning to `OCCC#Cc1nc(-c2ccc(F)cc2)c(-c2ccncc2)n1CCCc1ccccc1` [Modulator P38i, RWJ 67657], the IC50 in data set [5] is 3 nM. Besides, in data set [6], the IC50 is 11 nM. For the same compound, in data set [1] (NHK, rhIL-17A), the “inhibition of IL-17 stimulated G-CSF production” value was “did not inhibit” and the “dose dependent G-CSF levels” value is listed as “does not inhibit G-CSF levels”. Moreover, the “expression of the gene panel” value in data set [4] is “did not lead to an overall reduction in expression of the gene panel”.

`Cc1nc(Nc2n[nH]c3c2CN(C(=O)N[C@H](CN(C)C)c2ccccc2)C3(C)C)c2sccc2n1` [PAKi, PF-3758309] yielded an IC50 in data set [1] (Homo sapiens, Keratinocyte) of 2270 nM. Also, the “inhibition of IL-17 stimulated G-CSF production” value in data set [1] (NHK, rhIL-17A) is on record as “did not inhibit”. Also, in data set [1] (NHK, rhIL-17A, highest dose of 20 μM), the G-CSF production entry is reported as “reduced G-CSF production”. Also, the “dose dependent G-CSF levels” value in data set [1] (NHK, rhIL-17A) is “some dose-dependent inhibition of G-CSF production with much lower potency compared to IL-17A inhibitors”. For the same compound, the cell toxicity entry in data set [7] (highest dose of 20 μM) is reported as “toxic to the cells”; in data set [7] (tested concentrations other than 20 μM PAK inhibitor), “well tolerated”. Further, the “expression of the gene panel” value in data set [4] is given as “did not lead to an overall reduction in expression of the gene panel”.

In the case of Secukinumab, the “inhibition of G-CSF production” value in data set [2] is reported as “inhibited G-CSF production”. Also, the IC50 in data set [2] and in data set [1] (setting [9]) was 0.2 nM in each case. The “expression of the gene panel” value in data set [3] and in data set [4] was “inhibited expression of the gene panel in a dose-dependent manner” throughout. For the same compound, in data set [1] (NHK, rhIL-17A), the “inhibition of IL-17 stimulated G-CSF production” value is “inhibited G-CSF production at all concentrations tested”.
